Results from ChEMBL document CHEMBL1201862, “PubChem BioAssay data set” (2004).
Calls of active or inactive are those of the source.

What was measured:
[1] = inhibitors of intracellular T. cruzi replication, confirmation, NIH3T3 host cells, beta-gal luminescence (AID 2044); format: functional, cell-based;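 note: intracellular parasites grown in NIH/3T3 mouse fibroblasts as host cells; luminescent beta-galactosidase reporter signal from transgenic T. cruzi replicating inside host cells; inhibitors lower the luminescence signal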
[2] = HepG2 cell cytotoxicity, dose response, cytotoxicity control for non-replicating M. tuberculosis project (AID 489018); format: functional; settings: Mycobacterium tuberculosis
[3] = biological target: Aryl hydrocarbon receptor (Homo sapiens, UniProt P35869); assay: Luminescence-based cell-based high throughput dose response assay for activators of the Aryl Hydrocarbon Receptor (AHR). [Related pubchem assays: 2796 (Primary screen (AHR activators in singlicate)), 2845 (Confirmation screen (AHR activators in triplicate)), 434939 (Counterscreen (PXR activators in triplicate)), 2804 (Summary (AHR activators))]; format: ADME
[4] = Vero E6 cell cytotoxicity, dose response, cytotoxicity control for non-replicating M. tuberculosis project, secondary assay (AID 492998); format: functional, VeroE6; settings: Vero C1008
[5] = cytotoxicity toward NIH3T3 fibroblasts, dose response, counter-screen, cell-based, ATP luminescence, mouse fibroblasts (AID 2010); format: functional;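 note: cells exposed to compound for about 90 hours before reading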
[6] = THP-1 cell cytotoxicity, dose response, cytotoxicity control for non-replicating M. tuberculosis project (AID 489025); format: functional
cells = format: functional
[7] = Luminescence Cell-Based Dose Response to Identify Activators of Luciferase Translation or Activity in H4-C Neuroglioblastoma Cells. [Related pubchem assays: 1829 (Project Summary), 1814 (Primary HTS)]; format: functional
[8] = biological target: Peroxisome proliferator-activated receptor gamma/Nuclear receptor corepressor 2 (Homo sapiens, UniProt P37231+Q9Y618); format: functional
[9] = biological target: T1, Polyadenylate-binding protein 1 (Homo sapiens, UniProt P11940); assay: PABP1 MLLE–PAM2 binding inhibitor potency, dose response, biochemical, fluorescence polarization, FITC-PAM2 peptide (AID 602259); format: functional; settings: read-out: IC50_Mean
[10] = biological target: T1, Polyadenylate-binding protein 1; assay: PABP1 MLLE–PAM2 interaction inhibitors, dose response, miRNA deadenylation inhibitor project, biochemical, fluorescence polarization, Cy5-PAM2 peptide, secondary (AID 602260); format: functional; settings: read-out: IC50_Mean
Estrogen receptor beta = Estrogen receptor beta (Homo sapiens, UniProt Q92731);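 note: recombinant ER-beta bound to coactivator SRC1 peptide in presence of estradiol agonist; inhibitors block coactivator peptide binding and lower the FRET signal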
[11] = NIH-3T3 fibroblast cytotoxicity, dose response, cytotoxicity control, cell-based, fluorescence, Alamar Blue, secondary assay (AID 2327); format: functional;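 note: NIH-3T3 mouse fibroblasts cultured with fluconazole at 8 µg/mL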
[12] = Luminescence Cell-Based Dose Confirmation to Identify Activators of 5'UTR Stem-Loop Driven Alpha-Synuclein mRNA Translation in H4 Neuroglioblastoma Cells. [Related pubchem assays: 1829 (Project Summary), 1814 (Primary HTS)]; format: functional
[13] = Luminescence Cell-Based Dose Response HTS to Identify Activators of Luciferase Translation or Activity in H4 […] Cells. [Related pubchem assays: 1829 (Project Summary), 1814 (Primary HTS)]; format: functional
[14] = biological target: Photoreceptor-specific nuclear receptor (Homo sapiens, UniProt Q9Y5X4); format: functional;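 note: potency for compounds that break the NR2E3 corepressor complex and count as activators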
[15] = Luminescence Cell-Based Dose Response to Identify Activators of 5'UTR Stem-Loop Driven Prion Protein mRNA Translation in H4-C Neuroglioblastoma Cells. [Related pubchem assays: 1829 (Project Summary), 1814 (Primary HTS)]; format: functional
[16] = C. albicans growth with fluconazole, confirmation, fluorescence, retest (AID 2467); format: functional, cell-based
[17] = biological target: Voltage-gated inwardly rectifying potassium channel KCNH2 (Homo sapiens, UniProt Q12809); assay: hERG protection from proarrhythmic block, potency, dose response, cell-based, thallium flux (AID 2121); format: ADME
[18] = biological target: T2, RNA-binding protein pos-1 (Caenorhabditis elegans, UniProt G5EF15); assay: inhibitors of POS-1/mex-3 RNA binding, dose response, biochemical, fluorescence polarization (AID 1964);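 note: purified POS-1 fused to maltose binding protein made in E. coli; potency of compounds blocking POS-1 binding to fluorescent RNA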
T2 sequence (G5EF15 whole entry): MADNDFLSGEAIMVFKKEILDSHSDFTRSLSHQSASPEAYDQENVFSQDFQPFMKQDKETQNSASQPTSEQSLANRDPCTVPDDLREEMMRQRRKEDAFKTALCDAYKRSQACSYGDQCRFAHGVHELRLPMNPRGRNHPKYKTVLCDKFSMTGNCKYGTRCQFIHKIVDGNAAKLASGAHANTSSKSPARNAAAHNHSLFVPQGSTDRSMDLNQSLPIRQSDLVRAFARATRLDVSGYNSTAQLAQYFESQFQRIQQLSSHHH

Bcl-2-related protein A1 [19] = biological target: T3, Bcl-2-related protein A1 (Mus musculus, UniProt Q07440); assay: Bfl-1 inhibitors blocking BH3 peptide binding, confirmation, biochemical, TR-FRET, mouse Bfl-1 (AID 621);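 note: TR-FRET binding of GST-Bfl-1 to FITC-labelled Bid peptide via terbium antibody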
T3 sequence (Q07440 whole entry): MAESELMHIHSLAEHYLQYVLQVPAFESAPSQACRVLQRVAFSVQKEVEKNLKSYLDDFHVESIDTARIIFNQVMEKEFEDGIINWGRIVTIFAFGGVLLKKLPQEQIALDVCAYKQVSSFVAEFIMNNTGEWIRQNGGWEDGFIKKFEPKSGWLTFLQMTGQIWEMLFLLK

14-3-3 protein gamma = 14-3-3 protein gamma (Homo sapiens, UniProt P61981); assay: modulators of 14-3-3 gamma client binding – dose response (AID 711); format: functional
Bcl-2-related protein A1 [20] = biological target: T3, Bcl-2-related protein A1; assay: Bfl-1 inhibitors, primary screen, biochemical, fluorescence polarization, FITC-Bid, mouse (AID 432)
[21] = biological target: T4, Zinc finger protein mex-5 (Caenorhabditis elegans, UniProt Q9XUB2); assay: MEX-5/TCR-2 RNA interaction inhibitors, dose response, biochemical, C. elegans, fluorescence polarization (AID 1960)
T4 sequence (Q9XUB2 whole entry): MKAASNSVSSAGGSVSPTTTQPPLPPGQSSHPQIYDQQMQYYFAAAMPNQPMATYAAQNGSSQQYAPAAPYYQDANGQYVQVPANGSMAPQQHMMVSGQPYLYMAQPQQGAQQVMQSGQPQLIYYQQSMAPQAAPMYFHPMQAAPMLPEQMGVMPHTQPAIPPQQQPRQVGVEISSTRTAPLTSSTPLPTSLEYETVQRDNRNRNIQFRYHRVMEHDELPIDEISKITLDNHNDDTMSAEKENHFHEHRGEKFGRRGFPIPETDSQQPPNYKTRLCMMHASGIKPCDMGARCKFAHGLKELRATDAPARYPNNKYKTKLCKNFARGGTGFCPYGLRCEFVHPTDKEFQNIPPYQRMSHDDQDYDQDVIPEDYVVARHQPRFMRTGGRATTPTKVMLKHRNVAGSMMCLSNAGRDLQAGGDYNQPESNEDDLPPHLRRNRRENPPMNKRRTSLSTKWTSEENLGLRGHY

T1 sequence (P11940 whole entry): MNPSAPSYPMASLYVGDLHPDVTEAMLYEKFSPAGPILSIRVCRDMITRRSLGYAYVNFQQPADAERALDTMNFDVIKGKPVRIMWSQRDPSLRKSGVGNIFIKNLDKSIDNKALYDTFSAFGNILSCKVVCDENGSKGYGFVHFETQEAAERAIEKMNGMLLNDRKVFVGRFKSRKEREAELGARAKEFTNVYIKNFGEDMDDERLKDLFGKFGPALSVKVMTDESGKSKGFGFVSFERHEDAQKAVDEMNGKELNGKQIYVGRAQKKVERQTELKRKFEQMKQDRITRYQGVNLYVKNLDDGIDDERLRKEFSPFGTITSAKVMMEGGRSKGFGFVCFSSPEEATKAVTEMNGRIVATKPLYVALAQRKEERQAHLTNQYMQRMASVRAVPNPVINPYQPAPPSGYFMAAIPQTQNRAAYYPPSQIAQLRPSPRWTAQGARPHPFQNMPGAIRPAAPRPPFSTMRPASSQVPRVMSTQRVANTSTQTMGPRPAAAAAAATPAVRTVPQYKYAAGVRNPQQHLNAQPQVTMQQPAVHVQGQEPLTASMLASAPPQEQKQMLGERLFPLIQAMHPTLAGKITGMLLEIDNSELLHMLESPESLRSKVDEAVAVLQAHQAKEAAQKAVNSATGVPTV
Chain of Photoreceptor-specific nuclear receptor (Q9Y5X4 whole entry): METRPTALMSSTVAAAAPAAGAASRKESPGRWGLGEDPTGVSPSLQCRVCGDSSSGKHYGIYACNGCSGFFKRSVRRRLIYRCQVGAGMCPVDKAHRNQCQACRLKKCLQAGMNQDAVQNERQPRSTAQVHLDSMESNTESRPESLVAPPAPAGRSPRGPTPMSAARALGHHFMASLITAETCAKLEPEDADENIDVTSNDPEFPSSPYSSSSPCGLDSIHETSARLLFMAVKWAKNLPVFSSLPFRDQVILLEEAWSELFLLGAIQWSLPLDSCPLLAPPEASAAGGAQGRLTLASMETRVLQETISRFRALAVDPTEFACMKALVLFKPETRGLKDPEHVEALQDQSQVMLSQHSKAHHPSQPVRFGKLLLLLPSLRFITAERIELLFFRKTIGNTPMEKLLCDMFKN
Chain of Voltage-gated inwardly rectifying potassium channel KCNH2 (Q12809 whole entry, the tested form may be a part): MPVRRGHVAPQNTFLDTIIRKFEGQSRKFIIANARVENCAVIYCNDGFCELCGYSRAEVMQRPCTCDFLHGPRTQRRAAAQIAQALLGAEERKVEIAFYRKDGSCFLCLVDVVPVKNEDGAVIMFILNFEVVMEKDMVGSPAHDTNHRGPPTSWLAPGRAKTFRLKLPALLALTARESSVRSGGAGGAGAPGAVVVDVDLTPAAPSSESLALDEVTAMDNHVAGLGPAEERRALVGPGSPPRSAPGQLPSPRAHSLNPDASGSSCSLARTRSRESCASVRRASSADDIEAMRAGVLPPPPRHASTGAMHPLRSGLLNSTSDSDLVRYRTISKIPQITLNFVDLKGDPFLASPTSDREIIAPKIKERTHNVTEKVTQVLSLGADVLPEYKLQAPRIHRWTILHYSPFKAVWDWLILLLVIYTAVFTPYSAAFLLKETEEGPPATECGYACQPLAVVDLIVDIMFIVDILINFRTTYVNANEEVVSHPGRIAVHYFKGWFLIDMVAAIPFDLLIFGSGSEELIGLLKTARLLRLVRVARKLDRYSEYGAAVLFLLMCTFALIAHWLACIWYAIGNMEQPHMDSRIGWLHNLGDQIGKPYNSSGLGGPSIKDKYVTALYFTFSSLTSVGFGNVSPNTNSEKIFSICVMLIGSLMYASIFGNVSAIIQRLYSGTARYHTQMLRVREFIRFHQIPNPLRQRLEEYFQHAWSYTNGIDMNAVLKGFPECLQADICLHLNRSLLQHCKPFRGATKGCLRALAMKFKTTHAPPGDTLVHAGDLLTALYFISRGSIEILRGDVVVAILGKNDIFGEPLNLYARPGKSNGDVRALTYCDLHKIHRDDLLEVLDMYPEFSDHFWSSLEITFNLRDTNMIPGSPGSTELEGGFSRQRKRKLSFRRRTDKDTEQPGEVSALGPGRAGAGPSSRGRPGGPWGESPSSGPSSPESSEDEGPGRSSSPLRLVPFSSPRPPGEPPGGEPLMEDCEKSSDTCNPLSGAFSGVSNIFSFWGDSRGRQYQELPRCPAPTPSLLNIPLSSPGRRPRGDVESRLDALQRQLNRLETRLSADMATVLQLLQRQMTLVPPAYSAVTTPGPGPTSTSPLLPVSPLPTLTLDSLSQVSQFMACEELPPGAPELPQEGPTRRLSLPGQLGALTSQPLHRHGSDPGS
Chain of 14-3-3 protein gamma (P61981 whole entry): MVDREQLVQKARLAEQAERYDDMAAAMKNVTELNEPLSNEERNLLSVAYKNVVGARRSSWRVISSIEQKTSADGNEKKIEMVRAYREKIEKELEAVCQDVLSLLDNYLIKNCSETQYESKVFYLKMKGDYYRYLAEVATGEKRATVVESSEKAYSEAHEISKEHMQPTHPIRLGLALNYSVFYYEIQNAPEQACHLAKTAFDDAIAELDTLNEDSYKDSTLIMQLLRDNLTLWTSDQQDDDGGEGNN
Chain of Estrogen receptor beta (Q92731 whole entry): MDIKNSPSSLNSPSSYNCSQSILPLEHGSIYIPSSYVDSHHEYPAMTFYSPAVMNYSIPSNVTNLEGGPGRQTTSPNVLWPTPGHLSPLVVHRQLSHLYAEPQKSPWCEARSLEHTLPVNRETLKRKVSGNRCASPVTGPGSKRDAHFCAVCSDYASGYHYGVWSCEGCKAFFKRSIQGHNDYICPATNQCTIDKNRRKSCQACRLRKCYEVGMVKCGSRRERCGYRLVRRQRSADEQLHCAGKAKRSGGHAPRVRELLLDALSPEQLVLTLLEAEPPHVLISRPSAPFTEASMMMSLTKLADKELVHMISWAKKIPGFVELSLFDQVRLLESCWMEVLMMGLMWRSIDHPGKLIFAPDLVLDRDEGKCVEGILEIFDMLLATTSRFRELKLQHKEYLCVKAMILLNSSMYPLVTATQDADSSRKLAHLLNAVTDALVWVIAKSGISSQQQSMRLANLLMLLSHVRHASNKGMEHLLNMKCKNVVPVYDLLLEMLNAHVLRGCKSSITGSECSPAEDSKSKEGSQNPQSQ
Chain of Aryl hydrocarbon receptor (P35869 whole entry): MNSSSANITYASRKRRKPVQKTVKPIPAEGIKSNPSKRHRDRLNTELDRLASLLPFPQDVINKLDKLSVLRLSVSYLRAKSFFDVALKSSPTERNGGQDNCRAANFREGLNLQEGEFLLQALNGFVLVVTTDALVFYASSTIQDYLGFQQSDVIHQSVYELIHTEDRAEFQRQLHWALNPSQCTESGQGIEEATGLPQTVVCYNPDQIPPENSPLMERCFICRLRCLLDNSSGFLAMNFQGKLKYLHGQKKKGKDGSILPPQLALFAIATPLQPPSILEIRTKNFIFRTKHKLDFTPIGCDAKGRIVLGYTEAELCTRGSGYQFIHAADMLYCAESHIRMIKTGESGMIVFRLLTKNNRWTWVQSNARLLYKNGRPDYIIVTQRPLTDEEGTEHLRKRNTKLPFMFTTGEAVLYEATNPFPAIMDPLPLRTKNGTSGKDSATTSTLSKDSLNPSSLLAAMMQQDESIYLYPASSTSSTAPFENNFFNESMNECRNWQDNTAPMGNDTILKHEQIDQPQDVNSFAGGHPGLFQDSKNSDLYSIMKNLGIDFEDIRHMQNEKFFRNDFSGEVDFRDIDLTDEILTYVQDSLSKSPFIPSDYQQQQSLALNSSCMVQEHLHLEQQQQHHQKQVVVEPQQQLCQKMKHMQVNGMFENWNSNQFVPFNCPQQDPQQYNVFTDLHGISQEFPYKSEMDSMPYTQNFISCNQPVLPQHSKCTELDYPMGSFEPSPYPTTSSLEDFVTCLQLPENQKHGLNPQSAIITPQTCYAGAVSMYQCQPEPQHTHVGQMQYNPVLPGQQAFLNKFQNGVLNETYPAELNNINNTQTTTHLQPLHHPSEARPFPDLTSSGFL

For `COc1ccc(/C=N/Nc2cc(C)nc3ccccc23)cc1`, the EC50 [1] was 2.35 µM (active), the CC50 [2] was 12.5 µM (active) and the EC50 [3] was > 1.13 µM (active). For the same compound, the CC50 [4] was 11 µM (active), the EC50 [5] was 11.2 µM (active) and the CC50 [6] was 12.1 µM (active). For the same compound, the IC50 (cells) was 11.1 µM (active).

For `Cc1ccc(C(=O)Nc2nc3ccccc3c(=O)s2)cc1`, the EC50 [7] was 0.303 µM (active), the IC50 [8] was 2.71 µM (active) and the IC50 [9] was > 66 µM (inactive). The IC50 [10] was > 66 µM (inactive), the IC50 (Estrogen receptor beta) was > 50 µM (not active) and the EC50 [11] was > 160 µM (inactive). For the same compound, the EC50 [12] was 0.295 µM (active), the EC50 [13] was < 0.1 µM (inconclusive) and the IC50 [14] was > 39.8 µM (not active). The EC50 [15] was 0.311 µM (active), the EC50 [16] was 10.2 µM (active) and the EC50 [17] was 2.74 µM (active).

For `Cc1ccc(C2C3CN(C(C)C)CC=C3C(C#N)=C(N)C2(C#N)C#N)cc1` (centres undefined), the EC50 [18] was 7.15 µM (inconclusive), the IC50 (Bcl-2-related protein A1 [19]) was > 100 µM (not active) and the IC50 (14-3-3 protein gamma) was > 50 µM (not active). For the same compound, the IC50 (Bcl-2-related protein A1 [20]) was > 100 µM (not active) and the EC50 [21] was 8.29 µM (inconclusive).
